Laboratory results: patent US20260286254A1, “Bleach Catalyst and Composition Comprising Said Catalyst” (Reckitt Benckiser Vanish B.V., priority 2023, published 2026)
Entries after “also recorded” stand apart in the source; their conditions may differ.

Experiments:
[1] = Stability of bleach catalysts: UV-vis absorbance at 445 nm and appearance of alkaline solutions; assay type: physicochemical; details: for Absorption at 445 nm, t = 0 / Absorption at 445 nm, t = 48 h: 0.28 mM in 50 wt. % water/50 wt. % acetone; for Absorption at 445 nm, t = 0 / Appearance, t = 0: pH 11, t = 0; for Absorption at 445 nm, t = 48 h / Appearance, t = 48 h: pH 11, t = 48 h; for Appearance, t = 0 / Appearance, t = 48 h: alkaline conditions
Method: The stability of bleach catalysts having the structures shown in Table 1 was determined by preparing solutions of these compounds and measuring their UV-vis absorbance. The person skilled in the art will know how to synthesise the catalysts shown below starting from saccharine.
A solution of each compound was prepared by dissolving each compound in a mixture of 50 wt. % water and 50 wt. % acetone. The concentration of each solution was 0.28 mM.
The pH of each solution was set to 11 by adding few drops of a diluted solution of sodium percarbonate to mimic the alkaline conditions of the final formula.
The UV-vis absorption of each solution was measured just after preparing the samples (t=0), then at 2 h and 48 h using a UV-Vis Evolution 220 FC-1135 spectrophotometer using a 2 mm quartz cuvette.

[2] = Kinetic of Tropaeolin-O degradation (UV-Vis absorbance at 430 nm); details: statement in text on Table 5
Method: These tests were performed following the procedure described in US2012/0205581 A1. Here, Tropaeolin-O was used as sensor molecule to describe the oxidation kinetic of the different catalysts. The catalytic activity of a bleach catalyst is given by the photocatalytic degradation of tropaeolin-O under visible light irradiation.
The kinetic of tropaeolin-O degradation of each sample was determined by measuring the UV-Vis absorbance of the sample every 60 seconds for a total period of 20 minutes at 430 nm. This was done using a UV-Vis Evolution 220 FC-1135 spectrophotometer.
A base detergent system containing tropaeolin-O was prepared by adding to 1000 mL of demineralized water at 40° C., the following ingredients: • 2.92 g of Ariel Gel (as sold in the UK), • 0.088 g of Tropaeolin-O (purity ex. Sigma and used as received), • 1.75 g of Sodium percarbonate (purity: 13.3 wt. % active oxygen), • 0.10 g of bleach activator tetraacetylethylenediamine (TEAD, purity: 92 wt. % active) […]
The 430 nm absorption peak associated to the decomposition of the sensor molecule, i.e., Tropaeolin-O, after addition of a detergent system was followed over time. […] Absorbance in Table 5 is given in absorbance units (a.u.)

Structure (SMILES) | Absorption at 445 nm, t = 0 [1] | Absorption at 445 nm, t = 48 h [1] | Appearance, t = 0 [1] | Appearance, t = 48 h [1] | activity / performance (tropaeolin-O decomposition), in words [2] | stability of the bleach catalyst, in words [1]
O=S1(=O)N=C(c2ccccc2)c2ccccc21 [Bleach catalyst B, 3-phenyl-1,2-benzisothiazole-1,1-dioxide] | <0.05 | <0.05 | Transparent | Transparent | – | –
CCCCCCCCCCCCC1=NS(=O)(=O)c2ccccc21 [Bleach catalyst D, 3-lauryl-1,2-benzisothiazole-1,1-dioxide] | <0.05 | 0.07 | Transparent | coloured/yellow; also recorded: Yellowing | – | –
O=S1(=O)N=C(c2cccnc2)c2ccccc21 [Bleach catalyst 2, 3-(pyridin-3-yl)-1,2-benzisothiazole-1,1-dioxide] | <0.05 | <0.05 | Transparent | Transparent | enhanced activity | stable

More lines, main results first:

Absorption at 445 nm, t = 0 [1] | Absorption at 445 nm, t = 48 h [1] | Appearance, t = 0 [1] | Structure (SMILES) | Appearance, t = 48 h [1] | activity / performance (tropaeolin-O decomposition), in words [2] | stability of the bleach catalyst, in words [1]
<0.05 | <0.05 | Transparent | O=S1(=O)N=C(c2ccccn2)c2ccccc21 [Bleach catalyst 1, 3-(pyridin-2-yl)-1,2-benzisothiazole-1,1-dioxide] | Transparent | enhanced activity | stable
<0.05 | <0.05 | Transparent | CC(C)(C)C1=NS(=O)(=O)c2ccccc21 [Bleach catalyst C, 3-tert-butyl-1,2-benzisothiazole-1,1-dioxide] | Transparent | – | –
<0.05 | 0.37 | Transparent | CC1=NS(=O)(=O)c2ccccc21 [Bleach catalyst A, 3-methyl-1,2-benzisothiazole-1,1-dioxide] | coloured/yellow; also recorded: Yellowing | – | –
